Reference: article PMC9449670, “Two types of peptides derived from the neurotoxin GsMTx4 inhibit a mechanosensitive potassium channel by modifying the mechanogate” (The Journal of Biological Chemistry, 2022)
Bridges are numbered along the chain shown (N, C = ends). Where no end group is shown, it is not given here.

Legend:
BK (mSlo1) channel = assay: Macroscopic currents of regular BK (mSlo1) channel in excised inside-out patches from Xenopus laevis oocytes; assay type: cell-based, mouse; details: 10 μM peptide backfilled, 25 min, [Ca2+]i 100 μM, n = 4-6
Method: Macroscopic currents for regular BK (mSlo1) channels were recorded from Xenopus laevis oocytes by using standard excised inside–out patches. mSlo1 cDNA was a gift from the laboratory of Dr Christopher Lingle (Washington University), of which the vector pXMX was designed to promote […] expression ([12], [36], [52]). pClamp (Molecular Devices) was used to drive stimulus protocols and digitize currents as described previously ([51], [53]). The standard pipette (extracellular) solution contains (in millimolar): 140 KMES (methanesulfonate), 20 KOH, 10 Hepes, 2 MgCl2, and pH 7.0. The internal solution contains (in millimolar) 140 KMES, 20 KOH, 10 Hepes, 5 EGTA, and pH 7.0. The free intracellular [Ca^2+]i solution was buffered as described previously ([36], [52]).
(§1) In brief, the normal pipette solution was first filled in the tips of the electrodes, and then the same solution containing the peptide was backfilled. […] All experiments were performed with standard inside–out patch configuration at room temperature (22–25 °C).

[1] = target: T1, stretch-activated BK channel (SAKcaC) (Gallus gallus, UniProt Q8AYS8); assay: Single-channel excised inside-out patch clamp of SAKcaC expressed in CHO-K1 cells, peptide backfilled in the pipette (extracellular side); assay type: cell-based, chick; details: Vm −80 mV, [Ca2+]i 1 mM
T1 construct: expressed in transfected cells; host or cells: CHO-K1, transient transfection of pcDNA 3.1 with Lipofectamine 2000; pEGFP co-expressed as a separate marker
T1 sequence (Q8AYS8 1-1195 isoform Q8AYS8-3): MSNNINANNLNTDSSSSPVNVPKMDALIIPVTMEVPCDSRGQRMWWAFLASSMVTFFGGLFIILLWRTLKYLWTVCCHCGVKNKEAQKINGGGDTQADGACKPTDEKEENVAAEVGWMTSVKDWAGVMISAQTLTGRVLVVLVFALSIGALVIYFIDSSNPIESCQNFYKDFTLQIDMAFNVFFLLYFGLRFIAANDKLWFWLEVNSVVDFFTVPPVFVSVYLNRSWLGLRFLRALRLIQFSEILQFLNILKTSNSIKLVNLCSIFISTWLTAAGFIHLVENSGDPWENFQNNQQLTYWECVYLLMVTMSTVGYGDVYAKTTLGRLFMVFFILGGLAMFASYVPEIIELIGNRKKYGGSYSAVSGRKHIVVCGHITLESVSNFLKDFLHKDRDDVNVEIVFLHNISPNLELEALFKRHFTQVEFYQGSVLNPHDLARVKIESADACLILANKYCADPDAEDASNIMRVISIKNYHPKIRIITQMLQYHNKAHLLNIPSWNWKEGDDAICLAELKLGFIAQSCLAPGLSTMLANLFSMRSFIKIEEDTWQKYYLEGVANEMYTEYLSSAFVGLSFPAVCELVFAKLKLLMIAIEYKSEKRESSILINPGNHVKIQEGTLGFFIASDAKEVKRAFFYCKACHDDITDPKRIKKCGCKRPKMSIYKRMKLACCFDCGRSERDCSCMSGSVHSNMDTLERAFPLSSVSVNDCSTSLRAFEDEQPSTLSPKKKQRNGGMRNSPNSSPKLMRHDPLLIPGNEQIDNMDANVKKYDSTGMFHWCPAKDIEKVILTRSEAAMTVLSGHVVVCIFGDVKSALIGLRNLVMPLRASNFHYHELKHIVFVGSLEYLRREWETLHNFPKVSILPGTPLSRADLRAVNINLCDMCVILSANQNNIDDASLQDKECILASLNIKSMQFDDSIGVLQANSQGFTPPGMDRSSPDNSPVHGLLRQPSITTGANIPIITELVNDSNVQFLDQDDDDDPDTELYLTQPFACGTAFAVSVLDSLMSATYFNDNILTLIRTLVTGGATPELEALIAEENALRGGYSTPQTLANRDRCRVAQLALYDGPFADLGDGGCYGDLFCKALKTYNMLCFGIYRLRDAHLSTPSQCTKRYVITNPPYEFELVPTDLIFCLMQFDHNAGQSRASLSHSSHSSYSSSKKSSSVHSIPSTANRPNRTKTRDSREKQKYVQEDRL
From the text: (§2) The SA BK (SAKca) channel (SAKcaC) gene was cloned from the complementary DNA (cDNA) library (GenBank accession number: AB072618) from chick embryonic hearts ([13]); this was further subcloned into mammalian expression vectors (pcDNA 3.1). SAKca STREX (stress axis–regulated exon) deletion mutation (STREX-Del) was verified by sequencing as published previously ([35], [51]). Cloned SAKcaC (SAKca-WT) or STREX-Del mutant cDNAs were transiently transfected in the CHO-K1 cells using the Lipofectamine 2000 Transfection Reagent (Thermo Fisher Scientific) according to the manufacturer’s protocol. To monitor the successfully transfected cells, pEGFP (Clontech Laboratories) was coexpressed with the SAKca-WT or STREX-Del channel cDNA (5:1, w/w). The transfected cells grown on the coverslip were used for patch-clamp recordings. No endogenous BK channel activity was detected in the untransfected CHO-K1 cells. Currents were normally recorded within 1 week after cDNA transfection ([13], [37], [38]).
(§3) Single-channel currents for SAKcaC were recorded under the standard excised inside–out patch configuration. Currents were amplified using an A&M amplifier (Model 2400) or an EPC10 patch-clamp amplifier (HEKA Elektronik). Data were filtered at 10 kHz. The standard pipette solution facing the extracellular surface of the patch contained (in millimolar): 145 potassium gluconate, 1 EGTA, 10 Hepes, and 5 glucose, pH 7.4 was adjusted with NaOH. The bath solution facing the cytoplasmic surface of the patch membrane was the same except the [Ca^2+]i concentration used was 1 mM ([13], [38]).
as §1
(§4) Single-channel conductances of SAKcaC and the STREX-del mutant channel were determined by the slope of current–voltage (I–V) curves, where I–V data could be well fitted with a linear function ([12], [54]). Amplitude histograms were measured in inside–out patches mostly with one to three channels. […] In the case when only one channel was contained in patches, channel open probability Po (%) was determined simply by driving the total open duration of the sum of the open and closed times in patches as described previously ([51], [55]). When multiple channels were presented in the patch, Po was determined using the area under each peak (aj) at each current level (j) in the histogram along with the number of channels (N):(1) Po=∑j=0n(j∗aj)/n×∑j=0Naj Where N is the channel number in each patch, which was defined from the maximum level observed at a relatively higher voltage of +80 mV under 1 mM [Ca^2+]i.

[2] = target: T2, stretch-activated BK channel (SAKcaC, SAKca-WT) (Gallus gallus, UniProt Q8AYS8); assay: Single-channel excised inside-out patch clamp of native SAKcaC from ventricular myocytes, peptide backfilled in the pipette; assay type: cell-based, chick; details: for slope factor K^−1 of Po–V relationship (Boltzmann fit): control (no peptide) 25.1 ±1.16; for slope factor K^−1 of Po–V relationship (Boltzmann fit) / V1/2 of Po–V relationship (Boltzmann fit) / channel open probability Po with 50 nM peptide / channel open probability Po with 100 nM peptide / channel open probability Po with 0 nM peptide (control of the dose series) / Hill cofactor of dose–response curve: ventricular myocytes; for V1/2 of Po–V relationship (Boltzmann fit): control (no peptide) −91.5 ± 1.36 mV, n = 6 to 9; for channel open probability Po with 50 nM peptide / channel open probability Po with 100 nM peptide: 25 min following backfilling; for channel open probability Po with 50 nM peptide / channel open probability Po with 100 nM peptide / channel open probability Po with 0 nM peptide (control of the dose series): [Ca2+]i 1 mM, single sample patch
T2 construct: Native SAKcaCs were recorded from ventricular myocytes; endogenous in cells; host or cells: isolated chick ventricular myocytes
T2 sequence (Q8AYS8 1-1195 isoform Q8AYS8-3): as above
Method: Native SAKcaCs were recorded from ventricular myocytes, which were isolated from chick hearts as described previously ([12], [13], [37]).
as §3, §1
Single-channel conductances of SAKcaC and the STREX-del mutant channel were determined by the slope of current–voltage (I–V) curves, where I–V data could be well fitted with a linear function ([12], [54]). Amplitude histograms were measured in inside–out patches mostly with one to three channels. Histograms were fitted with a Gaussian function using pClampfit software (Molecular Devices Corp.). In the case when only one channel was contained in patches, channel open probability Po (%) was determined simply by driving the total open duration of the sum of the open and closed times in patches as described previously ([51], [55]). When multiple channels were presented in the patch, Po was determined using the area under each peak (aj) at each current level (j) in the histogram along with the number of channels (N):(1) Po=∑j=0n(j∗aj)/n×∑j=0Naj Where N is the channel number in each patch, which was defined from the maximum level observed at a relatively higher voltage of +80 mV under 1 mM [Ca^2+]i.

[3] = tested on: STREX-del mutant channel (SAKcaC with STREX-exon removed); assay: Single-channel inside-out patch clamp of mechano-insensitive STREX-del mutant channel expressed in CHO cells; assay type: cell-based, chick
From the text: as §2
Single-channel currents for SAKcaC were recorded under the standard excised inside–out patch configuration. […]
as §4

[4] = tested on: STREX-del mutant channel (SAKcaC with STREX-exon removed); details: earlier work of the authors; cited from earlier work
From the text: We next examined whether the two types of peptides function on the mechano-insensitive mutant channel. We have previously identified a mechano-insensitive-mutant (STREX-del) channel, of which the mechanosensor domain (STREX-exon) in SAKcaC was removed ([37], [38]). […] To investigate whether the synthetic short peptides act similarly to GsMTx4, we performed the same experiments to examine the effects of the two types of sh ...

Substance	effect on regular BK (mSlo1) channel, in words (BK (mSlo1) channel)	inhibitory effect on SAKcaC, in words ([1]; 5 μM peptide backfilled)	averaged diffusion/inhibitory rate (τ), single-exponential fit of Po time course ([1]; 5 μM peptide, mean ± SEM, at least four experiments, SEM) [min]	channel open probability Po at 16 min following backfilling ([1]; 5 μM peptide, single sample patch) [%]	channel open probability Po before peptide reaches the membrane (0 peptide, 2 min after backfilling) ([1]; baseline of the same patch, 5 μM peptide backfilled, 22–25 °C, single sample patch) [%]	inhibition of SAKcaC Po at +30 mV ([2]; 50 nM peptide, Vm +30 mV) [%]	inhibition of SAKcaC Po at −50 mV ([2]; 50 nM peptide, Vm −50 mV) [%]	slope factor K^−1 of Po–V relationship (Boltzmann fit) ([2]; 50 nM peptide)	V1/2 of Po–V relationship (Boltzmann fit) ([2]; 50 nM peptide) [mV]	inhibition of SAKcaC at depolarized condition, in words ([2]; 10 μM peptide, Vm +30 mV)	channel open probability Po with 50 nM peptide ([2]; Vm −50 mV) [%]	channel open probability Po with 100 nM peptide ([2]; Vm −50 mV) [%]	channel open probability Po with 0 nM peptide (control of the dose series) ([2]; Vm −50 mV) [%]	Hill cofactor of dose–response curve ([2]; Vm −50 mV)	effect on STREX-del mutant channel, in words ([3]; 10 μM peptide backfilled, −60 mV (Pept 02 also +30 mV), up to 25–30 min)	V1/2 of Po–V relationship of STREX-del (Boltzmann fit) ([3]; 10 μM peptide, Po 25 min following backfilling, control (no peptide) −9.2 ± 2.3 mV, n = 4 to 9) [mV]	slope factor K^−1 of Po–V relationship of STREX-del ([3]; 10 μM peptide, control (no peptide) 23.3 ± 2.8)	effect on STREX-del channel, in words [4]
WKCNPNDDKC (disulfide 3-10 (inferred)) [Pept 02, 10-residue type II peptide derived from loop2 of GsMTx4]	failed to inhibit	enhanced inhibition (%)	2.89 ± 0.16	3.6	42.9	~10.3	~71.3	22.9 ± 1.11	−23.7 ± 1.06	completely inhibited	22.1	6.8	72.5	1.8 ± 0.52	not significantly altered	−5.7 ± 2.6	22.5 ± 2.1	
GsMTx4 (GCLEFWWKCNPNDDKCCRPKLKCSKLFKLCNFSF; disulfide (positions not given here); ends not checked; UniProt Q7YT39 47-80, looked up) [reference compound]								24.5 ± 1.63	−47.2 ± 0.97		47.1	13.8	73.6	1.6 ± 0.47				without effect
